{"source": "paper PMC3820707", "about": "“Structure-Activity Relationships of Constrained Phenylethylamine Ligands for the Serotonin 5-HT2 Receptors” (PLoS ONE, 2013)", "key": {"[1]": {"biological_target": "T1, 5-HT2A (Homo sapiens, UniProt P28223)", "T1 sequence (P28223 whole entry)": "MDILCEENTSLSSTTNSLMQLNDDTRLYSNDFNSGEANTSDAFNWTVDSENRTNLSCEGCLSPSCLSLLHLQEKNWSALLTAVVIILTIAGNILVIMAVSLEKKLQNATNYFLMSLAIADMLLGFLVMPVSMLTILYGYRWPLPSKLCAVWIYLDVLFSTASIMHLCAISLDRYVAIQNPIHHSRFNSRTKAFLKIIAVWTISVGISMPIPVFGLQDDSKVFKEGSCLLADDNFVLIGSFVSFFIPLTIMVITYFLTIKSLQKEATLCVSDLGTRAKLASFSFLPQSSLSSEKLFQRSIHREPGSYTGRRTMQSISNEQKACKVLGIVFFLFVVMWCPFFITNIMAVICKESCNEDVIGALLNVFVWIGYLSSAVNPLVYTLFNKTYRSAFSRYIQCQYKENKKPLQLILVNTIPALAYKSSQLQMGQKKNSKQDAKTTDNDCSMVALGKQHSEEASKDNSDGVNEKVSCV", "conditions": "read-out: Affinity, Ki 5-HT2A; cited from earlier work"}, "[2]": {"biological_target": "5-HT2C", "conditions": "Rat; read-out: Affinity, Ki 5-HT2C; cited from earlier work"}, "[3]": {"biological_target": "5-HT2A", "conditions": "cited from earlier work; for Ki: Rat, read-out: Affinity, Ki 5-HT2A"}, "[4]": {"biological_target": "5-HT2A-C", "design": "method as in PMID 9857084", "conditions": "range over 5-HT2A, 5-HT2B, 5-HT2C; read-out: Affinity in 5-HT2A-C; cited from earlier work"}, "[5]": {"biological_target": "T1, 5-HT2A", "assay": "Competition binding with [3H]-ketanserin (NIMH PDSP)"}, "[6]": {"biological_target": "5-HT2B (Homo sapiens, UniProt P41595)", "sequence (P41595 whole entry)": "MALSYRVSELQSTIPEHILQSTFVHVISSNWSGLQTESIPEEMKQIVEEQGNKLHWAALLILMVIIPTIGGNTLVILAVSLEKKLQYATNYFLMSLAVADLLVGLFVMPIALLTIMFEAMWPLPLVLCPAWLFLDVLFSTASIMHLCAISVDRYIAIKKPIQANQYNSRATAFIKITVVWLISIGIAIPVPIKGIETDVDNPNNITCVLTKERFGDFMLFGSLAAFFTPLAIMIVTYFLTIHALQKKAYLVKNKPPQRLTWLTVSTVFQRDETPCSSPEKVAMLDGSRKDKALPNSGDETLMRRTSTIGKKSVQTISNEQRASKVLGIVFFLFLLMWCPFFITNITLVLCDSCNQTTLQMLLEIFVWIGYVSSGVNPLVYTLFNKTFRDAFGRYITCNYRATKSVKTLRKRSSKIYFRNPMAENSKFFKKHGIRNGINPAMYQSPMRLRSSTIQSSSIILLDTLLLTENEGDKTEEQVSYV", "assay": "Competition binding with [3H]-LSD (NIMH PDSP)"}, "[7]": {"biological_target": "T2, 5-HT2C (Homo sapiens, UniProt P28335)", "T2 sequence (P28335 33-458)": "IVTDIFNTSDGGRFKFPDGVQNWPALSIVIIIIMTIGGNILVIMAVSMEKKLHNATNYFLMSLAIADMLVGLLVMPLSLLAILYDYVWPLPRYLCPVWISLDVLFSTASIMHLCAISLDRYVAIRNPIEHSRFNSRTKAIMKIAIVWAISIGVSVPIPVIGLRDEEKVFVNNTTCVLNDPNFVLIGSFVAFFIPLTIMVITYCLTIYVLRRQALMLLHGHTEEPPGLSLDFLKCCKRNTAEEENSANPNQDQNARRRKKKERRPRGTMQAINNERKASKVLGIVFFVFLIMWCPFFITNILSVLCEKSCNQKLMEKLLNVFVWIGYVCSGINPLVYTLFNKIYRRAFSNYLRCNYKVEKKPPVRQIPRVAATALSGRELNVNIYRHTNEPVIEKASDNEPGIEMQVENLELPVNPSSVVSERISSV", "assay": "Competition binding with [3H]-mesulergine (NIMH PDSP)"}, "[8]": {"conditions": "Affinity, Ki 5-HT2B, radioligand [3H]-LSD"}}, "note": "Structures can show the parent of a compound that is named as a salt. Where two headings read alike, the source gives them in different places.", "data": [{"compound": "COc1cc2c(cc1Br)OCC2CN", "note": "(stereo not shown) (as salt: hydrochloride) [Compound 9, (6-Bromo-5-methoxy-2,3-dihydrobenzofuran-3-yl)methanamine]", "values": [{"measurement": "melting point", "value": "232 to 234 °C (dec.)"}]}, {"compound": "COc1cc2c(cc1Br)OCCCC2CN", "note": "(stereo not shown) (as salt: hydrochloride) [Compound 11, (8-Bromo-7-methoxy-2,3,4,5-tetrahydrobenzo[b]oxepin-5-yl)methanamine]", "values": [{"measurement": "melting point", "value": "224 to 226", "unit": "°C"}]}, {"compound": "COc1cc(CCN)c(OC)cc1Br", "note": "[Compound 1a, 2C-B]", "values": [{"measurement": "Ki", "setting": "[1]", "value": 0.88, "unit": "nM"}]}, {"compound": "COc1cc(CC(C)N)c(OC)cc1Br", "note": "(stereo not shown) [Compound 1b, DOB]", "values": [{"measurement": "Ki", "setting": "[2]", "value": 2.82, "unit": "nM"}, {"measurement": "Ki", "setting": "[3]", "value": "[…]"}]}, {"compound": "NCCc1c2c(c(Br)c3c1OCCC3)OCCC2", "note": "[Compound 3a, 2C-B-butterfly]", "values": [{"measurement": "Ki", "setting": "[2]", "value": 1.52, "unit": "nM"}, {"measurement": "Ki", "setting": "[3]", "value": 1.76, "unit": "nM"}]}, {"compound": "CC(N)Cc1c2c(c(Br)c3c1OCCC3)OCCC2", "note": "(stereo not shown) [Compound 3b, DOB-butterfly]", "values": [{"measurement": "Ki", "setting": "[2]", "value": 1.85, "unit": "nM"}, {"measurement": "Ki", "setting": "[3]", "value": 3.87, "unit": "nM"}]}, {"compound": "CC(N)Cc1c2ccoc2c(Br)c2ccoc12", "note": "(stereo not shown) [Compound 4, Bromo-DragonFLY]", "values": [{"measurement": "Ki", "setting": "[4]", "value": "0.02 to 0.19", "unit": "nM"}]}, {"compound": "COc1cc(Br)c(OC)c2c1C(CN)CC2", "note": "(stereo not shown) [Compound 7]", "values": [{"measurement": "Ki", "setting": "[1]", "value": 47, "unit": "nM"}]}, {"compound": "COc1cc2c(cc1Br)OCCC(N)C2", "note": "(stereo not shown) [Compound 8]", "values": [{"measurement": "Fold lower affinity than the unconstrained reference DOB", "setting": "[3]; 5-HT2A", "value": 373, "unit": "fold"}, {"measurement": "Ki", "setting": "[3]", "value": 422, "unit": "nM"}]}, {"compound": "COc1cc2c(cc1Br)OCC2CN", "note": "(stereo not shown) [Compound 9, (6-Bromo-5-methoxy-2,3-dihydrobenzofuran-3-yl)methanamine]", "values": [{"measurement": "Ki", "setting": "[5]", "value": "1040 ± 188", "unit": "nM"}, {"measurement": "Ki", "setting": "[6]; [8]", "value": "196 ± 28", "unit": "nM"}, {"measurement": "Ki", "setting": "[7]", "value": "135 ± 31", "unit": "nM"}]}, {"compound": "COc1cc2c(cc1Br)OCCCC2CN", "note": "(stereo not shown) [Compound 11, (8-Bromo-7-methoxy-2,3,4,5-tetrahydrobenzo[b]oxepin-5-yl)methanamine]", "values": [{"measurement": "Ki", "setting": "[5]", "value": "> 10000", "unit": "nM"}, {"measurement": "Affinity, Ki 5-HT2A", "setting": "[5]; Human, radioligand [3H]-ketanserin", "value": "inactive"}, {"measurement": "Ki", "setting": "[6]; Affinity for 5-HT2B, radioligand [3H]-LSD", "value": 1900, "unit": "nM"}, {"measurement": "Ki", "setting": "[6]; [8]", "value": "1870 ± 345", "unit": "nM"}, {"measurement": "Ki", "setting": "[7]", "value": "> 10000", "unit": "nM"}, {"measurement": "Affinity, Ki 5-HT2C", "setting": "[7]; Human, radioligand [3H]-mesulergine", "value": "inactive"}]}, {"compound": "(6-Methoxychroman-4-yl)methanamine [Compound 10]", "values": [{"measurement": "Ki", "setting": "[5]; read-out: Affinity, Ki 5-HT2A, Human, radioligand [3H]-ketanserin", "value": "847 ± 79", "unit": "nM"}, {"measurement": "Ki", "setting": "[6]; read-out: Affinity, Ki 5-HT2B, radioligand [3H]-LSD", "value": "70 ± 13", "unit": "nM"}, {"measurement": "Ki", "setting": "[7]; read-out: Affinity, Ki 5-HT2C, Human, radioligand [3H]-mesulergine", "value": "124 ± 9", "unit": "nM"}]}]}
